How the values were obtained:
Assay type in all cases: in vivo
[1] = tested on: avocados; assay: Pulp firmness by penetrometer, Example 1 (California)
Protocol: (§1) As used herein, the “pulp firmness” of an avocado is measured using a penetrometer (Fruit Test™ FT40 penetrometer, from Wagner Instruments) having a plunger diameter of 8 mm Performing the test for pulp firmness destroys the avocado that is tested. When avocados are said herein to be treated in a certain way (e.g., harvested, shipped, exposed to a cyclopropene compound, etc.) when they have a certain specified pulp firmness, it is meant that, out of a group of avocados that have been harvested and treated as uniformly as reasonably possible, a sample of a relatively small number of avocados is removed and tested for pulp firmness. The large group of avocados is considered to have the pulp firmness that is the average value of the tests performed on the relatively small sample.
(§2) Pulp firmness was evaluated by peeling open 4 cm^2 of the avocado's peel using a fruit peeler provided with the penetrometer. The penetrometer was mounted on a manual stand with a lever to deliver unifoim force throughout the test. The avocado was placed with the peeled surface beneath the penetrometer tip with probe diameter of 8 mm, and the force required to punch through the pulp was measured. Each fruit was tested in 3 places.
(§3) Avocados were harvested in Oxnard, Calif., USA and packed in cardboard boxes and shipped to Sacramento, Calif, USA. After 2 days of transportation part of the avocados were packed in MAP bags. The appropriate weight of avocados was placed in each bag after harvest and shipment. Bags were placed in RPC (Recycle Plastic Container) carrying devices. Avocados then were stored at room temperature (22° C.).
(§4) The Test Protocol that was used was as follows. 60 MAP bags were packed. Each hag held approximately 1.7 kg (3.8 lb) of avocados. Three such bags were packed in each RPC. Total weight of avocados in MAP bags was approximately 102 kg. Approximately 51 kg of avocados were placed into RPC identical to those used for the MAP bags. The MAP-packaged avocados were packaged as follows: Nine fruits, approximately 1.7 kg (3.8 lb) were carefully placed into MAP bags, and the bags were sealed by twisting the open side of the bag, folding down the twisted end, and placing a rubber band around the twisted and folded end of the bag.
(§5) Avocados were harvested with a very high firmness (not possible to measure with FTA Machines (Firmness Texture Analyzer)). The FTA higher limit was 156 N (351 bf). To monitor the ripening process of the avocados, extra fruits were bagged in MAP bags and the firmness was monitored every day, twice a day until the fruits achieve an average firmness of 111 N (25 lbf). All avocados were kept at room temperature (22° C.) until achieving an average firmness of 111 N (251 bf).
(§6) After achieving an average firmness of 111 N (25 lbf) the avocados were randomly divided into treatment sets as follows:
(§7) On the same day the avocados achieved 111 N (25 lbf) of average firmness, each treatment set was marked, placed in a hermetical chamber at room temperature (22° C.). All chambers were of equal size and packed the same way. Treatment was for 12 hr. In the chambers for the 3 “MCP” treatment groups, at the beginning of the treatment period, SmartFresh™ SmartTabs™ tablets (AgroFresh, Inc.) were placed in the chamber. The amount of SmartFresh™ SmartTabs™ tablets was chosen to achieve the indicated concentration of 1-methylcyclopropene in the atmosphere of the chamber. The SmartTabs™ tablets were contacted with water in the normal way to release 1-MCP.
(§8) After the treatment in the chambers, the RPCs were moved into racks at room temperature for storage and observation. Avocados remained in the same bags throughout the packing, treatment in the chamber, and subsequent storage. Evaluation for skin color and pulp firmness was as follows. Day “zero” was the day the avocados were removed from the chamber and placed in storage. Each test result was the average of 12 fruits.

[2] = tested on: avocados; assay: RipeLock applications, Example 7; conditions: FIG. 5, firmness
From the text: Avocados are harvested, handled, and tested as in previous examples. Control samples have no bag and no SmartFresh (1-methylcyclopropene or 1-MCP) application. SmartFresh samples have no bags hut with 600 ppb SmartFresh (1-methylcyclopropene or 1-MCP) application. MAP samples use the 31b MAP bags but no SmartFresh (1-methylcyclopropene or 1-MCP) application. RipeLock 300 samples have the 31b MAP bags with 300 ppb SmartFresh (1-methylcyclopropene or 1-MCP) application. RipeLock 600 samples have the 31b MAP bags with 600 ppb SmartFresh (1-methylcyclopropene or 1-MCP) application. RipeLock 900 samples have the 31b MAP bags with 900 ppb SmartFresh (1-methylcyclopropene or 1-MCP) application. Average fruit in each sample is about 3.81b.
Oxygen (O2) concentrations of samples tested are shown in FIG. 1, and carbon dioxide (CO2) concentrations of samples tested are shown in FIG. 2.

[3] = tested on: avocados; assay: Skin color rating of avocados, Example 1 (California); parameters: key: 1 = full green, 3 = half green/half brown, 5 = purple-black
From the text: (§9) Avocado skin color was rated using the following scale: • 1=full green • 2=green with traces of brown • 3=half green and half brown • 4=brown with traces of green • 5=purple-black
as §3, §4, §5, §6, §7, §8

[4] = tested on: avocados; assay: Skin color on day 8, Example 3; parameters: key: 1: full green; 2: green with traces of brown; 3: half green and half brown; 4: brown with traces of green; 5: purple-black; conditions: 1000 ppb MCP
Protocol: as §9
Avocados were harvested in Mexico and shipped to Pennsylvania, USA. 48 fruits were tested. When the fruits reached pulp firmness of 71 N (16 lbf), half of the fruits were exposed to atmosphere having 1000 ppb of MCP at 21.1° C. for 12 hours and half were not. Immediately after treatment, fruits were placed in MAP bags. The number of fruits per bag was either 1, 2, 3, 4, or 10. Two MCP-treated fruits were left out of any MAP, and two fruits not exposed to MCP were also left out of any MAP. All fruits were then stored at 21° C. (70° F.). On the eighth day after exposure to atmosphere containing MCP, fruits were tested with the following results. The results shown are the averages for all the fruits tested in each category.
Avocados were harvested and shipped as in Example 2. Treatment was performed when pulp thinness reached 98 N (22 lbf). 50 fruits were tested. Otherwise the treatment and handling was the same as in Example 2. Results (average of all fruits tested in each category) were as follows: […]

[5] = tested on: avocados; assay: Skin color rating, ethylene-treated fruit, Example 6; parameters: key to Skin Color ratings: 1 = full green to 5 = purple-black; conditions: for Skin Color ratings: ethylene-treated, 900 ppb MCP
From the text: as §9
(§10) Avocados were harvested, handled, and tested as in Example 1. Fruits were placed into MAP bags or else into “Poly bags” (plastic bags having more than 10 holes per bag, with each hole larger than 1 cm in diameter).
(§11) Three fruits (approximately 1.8 kg of fruit) were placed in each bag. After placement into bags, fruit was exposed to ethylene (200 ppm for 24 hours at 22° C.). Then, the fruit was exposed to 1-MCP (900 ppb for 15 hours at 22° C.).

[6] = tested on: avocados; assay: Pulp firmness, ethylene-treated fruit, Example 6; conditions: for Pulp Firmness Difference from the Control Sample: ethylene-treated, 900 ppb MCP, control Poly bag, 0 MCP
Protocol: as §1, §2, §10, §11

[7] = tested on: avocados; assay: Additional RipeLock applications, Example 8; conditions: seven days at 22° C.
From the text: Avocados are harvested, handled, and tested as in previous examples. Control samples have no bag and no SmartFresh (1-methylcyclopropene or 1-MCP) application. SmartFresh samples have no bags but with 500 ppb SmartFresh (1-methylcyclopropene or 1-MCP) application. MAP samples use the 31b MAP bags but no SmartFresh (1-methylcyclopropene or 1-MCP) application. RipeLock samples have the 3 lb MAP bags with various concentrations of SmartFresh (1-methylcyclopropene or 1-MCP) applications, including 10 ppb, 50 ppb, 100 ppb, 500 ppb, 1500 ppb, 3000 ppb, and 4500 ppb. Average fruit in each sample is about 3.8 lb. Ethylene is treated after packing at 200 ppm for twenty-four hours. Evaluations are performed seven days at 22° C. after SmartFresh (1-methylcyclopropene or 1-MCP) applications.
Data of pulp firmness of avocado tested are shown in FIG. 6 (with ethylene) and FIG. 7 (without ethylene).

CC1=CC1 [MCP, 1-methylcyclopropene]
Pulp Firmness - Difference from Untreated Control ([1]; MAP bag, 300 ppb MCP, day 0): 90 Ns | Pulp Firmness - Difference from Untreated Control ([1]; MAP bag, 300 ppb MCP, day 1): 22 Ns | Pulp Firmness - Difference from Untreated Control ([1]; MAP bag, 300 ppb MCP, day 2): 36 Ns | Pulp Firmness - Difference from Untreated Control ([1]; MAP bag, 300 ppb MCP, day 3): 41.3 Ns | Pulp Firmness - Difference from Untreated Control ([1]; MAP bag, 300 ppb MCP, day 4): 33 Ns | Pulp Firmness - Difference from Untreated Control ([1]; MAP bag, 600 ppb MCP, day 0): 84 Ns | Pulp Firmness - Difference from Untreated Control ([1]; MAP bag, 600 ppb MCP, day 1): 46 Ns | Pulp Firmness - Difference from Untreated Control ([1]; MAP bag, 600 ppb MCP, day 2): 39 Ns | Pulp Firmness - Difference from Untreated Control ([1]; MAP bag, 600 ppb MCP, day 3): 59.3 Ns | Pulp Firmness - Difference from Untreated Control ([1]; MAP bag, 600 ppb MCP, day 4): 40 Ns | Pulp Firmness - Difference from Untreated Control ([1]; MAP bag, 900 ppb MCP, day 0): 93 Ns | Pulp Firmness - Difference from Untreated Control ([1]; MAP bag, 900 ppb MCP, day 1): 61 Ns | Pulp Firmness - Difference from Untreated Control ([1]; MAP bag, 900 ppb MCP, day 2): 52 Ns | Pulp Firmness - Difference from Untreated Control ([1]; MAP bag, 900 ppb MCP, day 3): 49.3 Ns | Pulp Firmness - Difference from Untreated Control ([1]; MAP bag, 900 ppb MCP, day 4): 46 Ns | improvement over the untreated control (pulp firmness) ([1]; MCP alone at 600 ppb, day 3): 4 lbf | Pulp Firmness - Difference from Untreated Control ([1]; No Bag, 600 ppb MCP, day 0): 29 Ns | Pulp Firmness - Difference from Untreated Control ([1]; No Bag, 600 ppb MCP, day 1): 14 Ns | Pulp Firmness - Difference from Untreated Control ([1]; No Bag, 600 ppb MCP, day 2): 10 Ns | Pulp Firmness - Difference from Untreated Control ([1]; No Bag, 600 ppb MCP, day 3): 17.3 Ns | Pulp Firmness - Difference from Untreated Control ([1]; No Bag, 600 ppb MCP, day 4): 12 Ns | combined effect of MAP bags and SmartFresh application [2]: synergistic effect | Skin Color ratings ([3]; MAP bag, 300 ppb MCP, day 0): 1.7 | Skin Color ratings ([3]; MAP bag, 300 ppb MCP, day 1): 2.9 | Skin Color ratings ([3]; MAP bag, 300 ppb MCP, day 2): 2.3 | Skin Color ratings ([3]; MAP bag, 300 ppb MCP, day 3): 2.8 | Skin Color ratings ([3]; MAP bag, 300 ppb MCP, day 4): 2.3 | Skin Color ratings ([3]; MAP bag, 600 ppb MCP, day 0): 1.7 | Skin Color ratings ([3]; MAP bag, 600 ppb MCP, day 1): 2.3 | Skin Color ratings ([3]; MAP bag, 600 ppb MCP, day 2): 2.3 | Skin Color ratings ([3]; MAP bag, 600 ppb MCP, day 3): 2.2 | Skin Color ratings ([3]; MAP bag, 600 ppb MCP, day 4): 2.1 | Skin Color ratings ([3]; MAP bag, 900 ppb MCP, day 0): 1.6 | Skin Color ratings ([3]; MAP bag, 900 ppb MCP, day 1): 2.3 | Skin Color ratings ([3]; MAP bag, 900 ppb MCP, day 2): 2.3 | Skin Color ratings ([3]; MAP bag, 900 ppb MCP, day 3): 2.3 | Skin Color ratings ([3]; MAP bag, 900 ppb MCP, day 4): 2.4 | Skin Color ratings ([3]; No Bag, 600 ppb MCP, day 0): 2.6 | Skin Color ratings ([3]; No Bag, 600 ppb MCP, day 1): 3.0 | Skin Color ratings ([3]; No Bag, 600 ppb MCP, day 2): 2.8 | Skin Color ratings ([3]; No Bag, 600 ppb MCP, day 3): 3.8 | Skin Color ratings ([3]; No Bag, 600 ppb MCP, day 4): 3.4 | Skin Color on Day 8, Color Rating ([4]; MAP bag): 4.2 | Skin Color on Day 8, Color Rating ([4]; no bag): 5 | skin color compared with other treatments ([5]; MAP bags and 900 ppb of 1-MCP, days 1, 2, and 3): best skin color | Skin Color ratings ([5]; MAP bag, day 0): 2.1 | Skin Color ratings ([5]; MAP bag, day 1): 3.0 | Skin Color ratings ([5]; MAP bag, day 2): 3.3 | Skin Color ratings ([5]; MAP bag, day 3): 3.4 | Skin Color ratings ([5]; MAP bag, day 4): 4.4 | Skin Color ratings ([5]; Poly bag, day 0): 4.1 | Skin Color ratings ([5]; Poly bag, day 1): 4.9 | Skin Color ratings ([5]; Poly bag, day 2): 4.8 | Skin Color ratings ([5]; Poly bag, day 3): 4.8 | Skin Color ratings ([5]; Poly bag, day 4): 4.9 | effect of combining MAP bag and 1-MCP on pulp firmness ([6]; MAP bags and 900 ppb 1-MCP, days 1-4): synergistic benefit to pulp firmness | pulp firmness compared with other treatments ([6]; MAP bags and 900 ppb of 1-MCP, days 1-4): best pulp firmness | Pulp Firmness Difference from the Control Sample ([6]; MAP bag, day 0): 13.8 Ns | Pulp Firmness Difference from the Control Sample ([6]; MAP bag, day 1): 30.4 Ns | Pulp Firmness Difference from the Control Sample ([6]; MAP bag, day 2): 14.6 Ns | Pulp Firmness Difference from the Control Sample ([6]; MAP bag, day 3): 21.4 Ns | Pulp Firmness Difference from the Control Sample ([6]; MAP bag, day 4): 14.8 Ns | Pulp Firmness Difference from the Control Sample ([6]; Poly bag, day 0): 0.1 Ns | Pulp Firmness Difference from the Control Sample ([6]; Poly bag, day 1): 1.1 Ns | Pulp Firmness Difference from the Control Sample ([6]; Poly bag, day 2): 0.6 Ns | Pulp Firmness Difference from the Control Sample ([6]; Poly bag, day 3): 1.4 Ns | Pulp Firmness Difference from the Control Sample ([6]; Poly bag, day 4): 0.1 Ns | firmness and skin color by application rate ([7]; rate of 1500 ppb in MAP bags): best result for both firmness and skin color | combined effect of MAP bags and SmartFresh applications ([7]; rates equal or higher than 500 ppb): synergistic effect

Source: patent publication US20190254299A1, “METHODS OF HANDLING AVOCADOS AND SYSTEM” (AGROFRESH INC., priority 2012, published 2019)
